Measured values taken from publication PMC11809415 (The Journal of Cell Biology, 2025).
Entries after “also recorded” stand apart in the source; their conditions may differ.

What was measured:
F-actin [1] = experiment: High-speed cosedimentation with F-actin (120,000 g), SDS-PAGE densitometry; format: binding, rabbit skeletal muscle α-actin; conditions: for Fraction bound: 2 μM mCherry fusion
Experimental: (§1) Rabbit skeletal muscle α-actin was purified from muscle acetone powder (Pel-Freez Biologicals) as described in [Merino et al. (2018)] and stored in 50 μl aliquots at −70°C.
A single colony was inoculated into 200 ml of LB media and grown at 37°C. At OD600 0.6–1.0, protein expression was induced by the addition of IPTG to a final concentration of 0.02 mM. After 16 h of expression at 22°C, the cells were harvested by centrifugation, resuspended in TBS (20 mM Tris pH 8 and 150 mM NaCl), and lysed by sonication. The soluble fraction was applied on TBS-equilibrated Protino Ni-IDA resin (Macherey-Nagel), washed, eluted with TBS supplemented with 250 mM imidazole, dialyzed against TBS, and stored at −20°C.
Freshly thawed mammalian α-actin was spun down at 120,000 g for 20 min at 4°C using a TLA-120.1 rotor, and the supernatant containing G-actin was collected. The protein was then polymerized by incubation in F buffer (120 mM KCl, 20 mM Tris pH 8, 2 mM MgCl2, 1 mM DTT, and 1 mM ATP) for 2 h on ice. Cosedimentation assays were performed in 20 μl volumes by first incubating F-actin with F-tractinopt-mCherry fusions for 5 min at room temperature and then centrifuging at 120,000 g using the TLA-120.1 rotor for 20 min at 4°C. After centrifugation, aliquots of the supernatant and resuspended pellet fractions were separated on SDS-polyacrylamide gels with 2,2,2-trichloroethanol ([Ladner-Keay et al., 2018]), visualized under ultraviolet light, and analyzed by densitometry using ImageJ (RRID:SCR_003070). The Kd values were calculated using GraphPad Prism software (RRID:SCR_002798).

[2] = system: actin (ADP-ribosylation by TcART, Photorhabdus luminescens); experiment: ADP-ribosylation of actin by TcART in presence of actin-binding peptides; format: biochemical, rabbit skeletal muscle α-actin; conditions: for ADP-ribosylation level: relative to no peptide = 1, […] actin, 314 pM TcART, 10 min 37°C; for effect on TcART modification of F-actin (in words): peptides up to 100 µM
Experimental: as §1
TcART, the ADP-ribosyltransferase from P. luminescens Tc toxin, was purified from E. coli BL21-CodonPlus(DE3)-RIPL harboring the plasmid pB656 as described previously ([Belyy et al., 2022]).
A total of 8-μl mixtures of 2 μg (4.8 μM final concentration) actin and actin-binding peptides at specified concentrations were preincubated for 5 min at room temperature in the buffer containing 1 mM NAD, 20 mM Tris pH 8, 150 mM NaCl, and 1 mM MgCl2. The ADP ribosylation reaction was initiated by the addition of 0.2 ng (314 pM) of TcART to the mixture. After 10 min of incubation at 37°C, the reaction was stopped by adding Laemmli sample buffer and heating the sample at 95°C for 5 min. The components of the mixture were separated by SDS-PAGE, blotted onto a polyvinylidene difluoride (PVDF) membrane using a Trans-Blot Turbo Transfer System (Bio-Rad), and visualized using a combination of the His-tagged ADP-ribose binding protein at the concentration of 0.01 mg/ml and HisProbe-HRP conjugate. The level of actin ADP-ribosylation was quantified by densitometry using ImageJ.

[3] = system: U-2 OS cells (phalloidin-stained actin); experiment: Colocalization with phalloidin in U-2 OS cells (Pearson correlation); format: cell-based, human; conditions: EGFP fusions
F-actin [4] = experiment: Actin bundling assay using low-speed centrifugation (10,000 g); format: biochemical, rabbit skeletal muscle α-actin; conditions: for F-actin in the pellet: 10 μM actin filaments, 5 min RT, 10,000 g
Experimental: as §1
8 μl of actin filaments at 10 μM were mixed with peptides at the specified concentration, incubated for 5 min at room temperature, and spun down at 10,000 g for 10 min at 4°C. Aliquots of the supernatant and resuspended pellet fractions were separated on SDS-polyacrylamide gels with 2,2,2-trichloroethanol ([Ladner-Keay et al., 2018]) and visualized with ultraviolet light.

[5] = system: U-2 OS cells (actin fibers); experiment: Signal-to-noise ratio (fibers/cytosol) in U-2 OS cells; format: cell-based, human; conditions: EGFP fusions, compared with WT F-tractin
U-2 OS cells [6] = experiment: Nuclear signal enrichment in U-2 OS cells; format: cell-based, human; conditions: EGFP fusions
U-2 OS cells [7] = experiment: FRAP recovery half time in U-2 OS cells; format: cell-based, human; conditions: EGFP fusions
F-actin [8] = conditions: ref Melak et al., 2017; cited from earlier work
Source text: Phalloidin, a cyclic peptide derived from the fungus Amanita phalloides, was one of the first probes used for F-actin labeling ([Wehland et al., 1977]; [Wulf et al., 1979]). […] The need to visualize actin dynamics led to the development of genetically encoded fluorescent probes. Chimeras of green fluorescent protein ... || In live cell imaging experiments, F-tractin is typically used as a fusion of fluorescent proteins. […] However, a comparison of both markers has been largely limited to characterizations in cells ([Belin et al., 2014]; [Spracklen et al., 2014]; [Vosatka et al., 2022]). With structures of both probes in complex with F-actin available, we can now directly compare their actin interactions in atomic detail (Fig. 4, A–C). Both probes are at their core amphipathic helices that bind to overlapping interfaces of consecutive actin subunits, indicating a preference for “aged” A ...

[9] = ref Coluccio and Tilney, 1984; cited from earlier work
Source text: Phalloidin, a cyclic peptide derived from the fungus Amanita phalloides, was one of the first probes used for F-actin labeling ([Wehland et al., 1977]; [Wulf et al., 1979]). […] The need to visualize actin dynamics led to the development of genetically encoded fluorescent probes. Chimeras of green fluorescent protein ...

## APRRSVGELRLLAEARAASAA [F29A F-tractinopt, mCherry fusion in cosedimentation, EGFP fusion in cells]
F-actin [1]; 2 μM probe as mCherry fusion, F-actin titrated, 5 min at room temperature, three independent experiments
  Kd: > 100 µM
F-actin [1]; F-actin 2 µM, Repeat 1
  Fraction bound: 0,02963
F-actin [1]; F-actin 2 µM, Repeat 2
  Fraction bound: 0,031317
F-actin [1]; F-actin 2 µM, Repeat 3
  Fraction bound: 0,036
F-actin [1]; F-actin 5 µM, Repeat 1
  Fraction bound: 0,020561
F-actin [1]; F-actin 5 µM, Repeat 2
  Fraction bound: 0,008869
F-actin [1]; F-actin 5 µM, Repeat 3
  Fraction bound: 0,001393
F-actin [1]; F-actin 10 µM, Repeat 1
  Fraction bound: 0,051546
F-actin [1]; F-actin 10 µM, Repeat 2
  Fraction bound: 0,016783
F-actin [1]; F-actin 10 µM, Repeat 3
  Fraction bound: 0,023887
F-actin [1]; F-actin 20 µM, Repeat 1
  Fraction bound: 0,035971
F-actin [1]; F-actin 20 µM, Repeat 2
  Fraction bound: 0,051087
F-actin [1]; F-actin 20 µM, Repeat 3
  Fraction bound: 0,050633
F-actin [1]; F-actin 40 µM, Repeat 1
  Fraction bound: 0,071269
F-actin [1]; F-actin 40 µM, Repeat 2
  Fraction bound: 0,046373
F-actin [1]; F-actin 40 µM, Repeat 3
  Fraction bound: 0,065217
F-actin [1]; cosedimentation, mCherry fusions of F-tractinopt variants
  affinity for F-actin (in words): barely detectable in the pellet at the highest concentration of F-actin used
[2]; peptide 100 µM, Repeat 1
  ADP-ribosylation level: 0,715886
[2]; peptide 100 µM, Repeat 2
  ADP-ribosylation level: 1,144903
[2]; peptide 100 µM, Repeat 3
  ADP-ribosylation level: 1,162086
[2]
  effect on TcART modification of F-actin (in words): did not interfere with TcART modification of F-actin
[3]
  binding to actin in cells (in words): completely failed to bind to actin in cells

## APRRSVGELRLLFEARAASAA [F-tractinopt, optimized F-tractin peptide; mCherry fusion in cosedimentation, EGFP fusion in cells]
F-actin [1]; F-actin 2 µM, Repeat 1
  Fraction bound: 0,113982
F-actin [1]; F-actin 2 µM, Repeat 2
  Fraction bound: 0,125633
F-actin [1]; F-actin 2 µM, Repeat 3
  Fraction bound: 0,150215
F-actin [1]; F-actin 5 µM, Repeat 1
  Fraction bound: 0,211009
F-actin [1]; F-actin 5 µM, Repeat 2
  Fraction bound: 0,27957
F-actin [1]; F-actin 5 µM, Repeat 3
  Fraction bound: 0,318841
F-actin [1]; F-actin 10 µM, Repeat 1
  Fraction bound: 0,480176
F-actin [1]; F-actin 10 µM, Repeat 2
  Fraction bound: 0,433657
F-actin [1]; F-actin 10 µM, Repeat 3
  Fraction bound: 0,418605
F-actin [1]; F-actin 20 µM, Repeat 1
  Fraction bound: 0,569748
F-actin [1]; F-actin 20 µM, Repeat 2
  Fraction bound: 0,578018
F-actin [1]; F-actin 20 µM, Repeat 3
  Fraction bound: 0,523474
F-actin [1]; F-actin 40 µM, Repeat 1
  Fraction bound: 0,557282
F-actin [1]; F-actin 40 µM, Repeat 2
  Fraction bound: 0,621935
F-actin [1]; F-actin 40 µM, Repeat 3
  Fraction bound: 0,643478
F-actin [4]; in vitro, up to 100 µM, low-speed centrifugation and cryo-EM
  actin bundling (in words): minimal actin bundling
F-actin [4]; peptide 1 µM, Repeat 1
  F-actin in the pellet: 0,098435
F-actin [4]; peptide 1 µM, Repeat 2
  F-actin in the pellet: 0,057915
F-actin [4]; peptide 1 µM, Repeat 3
  F-actin in the pellet: 0,103265
F-actin [4]; peptide 100 µM, Repeat 1
  F-actin in the pellet: 0,099007
F-actin [4]; peptide 100 µM, Repeat 2
  F-actin in the pellet: 0,095989
F-actin [4]; peptide 100 µM, Repeat 3
  F-actin in the pellet: 0,158954
F-actin [4]; peptide 1000 µM, Repeat 1
  F-actin in the pellet: 0,238373
F-actin [4]; peptide 1000 µM, Repeat 2
  F-actin in the pellet: 0,117922
F-actin [4]; peptide 1000 µM, Repeat 3
  F-actin in the pellet: 0,212762
[2]; peptide 1 µM, Repeat 1
  ADP-ribosylation level: 1,245716
[2]; peptide 1 µM, Repeat 2
  ADP-ribosylation level: 0,95033
[2]; peptide 1 µM, Repeat 3
  ADP-ribosylation level: 1,419998
[2]; peptide 3 µM, Repeat 1
  ADP-ribosylation level: 1,210256
[2]; peptide 3 µM, Repeat 2
  ADP-ribosylation level: 1,296322
[2]; peptide 3 µM, Repeat 3
  ADP-ribosylation level: 1,29383
[2]; peptide 10 µM, Repeat 1
  ADP-ribosylation level: 0,846657
[2]; peptide 10 µM, Repeat 2
  ADP-ribosylation level: 0,728925
[2]; peptide 10 µM, Repeat 3
  ADP-ribosylation level: 1,078508
[2]; peptide 30 µM, Repeat 1
  ADP-ribosylation level: 0,320904
[2]; peptide 30 µM, Repeat 2
  ADP-ribosylation level: 0,220558
[2]; peptide 30 µM, Repeat 3
  ADP-ribosylation level: 0,140877
[2]; peptide 100 µM, Repeat 1
  ADP-ribosylation level: 0,032604
[2]; peptide 100 µM, Repeat 2
  ADP-ribosylation level: 0,100767
[2]; peptide 100 µM, Repeat 3
  ADP-ribosylation level: 0,002262
[2]
  effect on TcART modification of F-actin (in words): inhibited TcART activity in a similar dose-dependent manner
[5]
  signal-to-noise ratio between actin fibers and cytosol (in words): behave very similarly (no
U-2 OS cells [6]
  nuclear enrichment (in words): slightly higher accumulation of F-tractinopt in the nucleus
U-2 OS cells [7]
  exchange / recovery in FRAP (in words): exchanged faster than WT F-tractin; also recorded: FRAP recovery rates

## Phalloidin
F-actin [8]
  affinity and selectivity for F-actin: high affinity and selectivity for F-actin
[9]
  membrane permeability: low membrane permeability
